The IC50 is the concentration that inhibits the measured activity by half. A low value points to greater potency.

In BindingDB's records for doi:10.1021/jm00025a010 (Eli Lilly, 1995) one finds IC50 data, which are given here for eight molecules.

The target of one experiment is T1, Gag-Pol polyprotein [588-1027]/[588-1147] (Human immunodeficiency virus 1, UniProt P04585).
T1 construct: 588-1027; 588-1147
Nature of the experiment: HIV-1 RT Assay.
Conditions: not given
`S=C(NCCc1cccnc1)Nc1nccs1` [1-[2-(pyridin-3-yl)ethyl]-3-1,3-thiazol-2-ylthiourea] showed an IC50 above 10 µM.

Molecule `S=C(NCCc1ccncc1)Nc1nccs1` [1-[2-(pyridin-4-yl)ethyl]-3-1,3-thiazol-2-ylthiourea] displayed an IC50 above 10 µM.

With `CCCCCCOc1cccc(CC/N=C(\S)Nc2nccs2)c1` [N-(2-(3-(Hexyloxy)phenethyl))-N -(2-thiazolyl)thiourea], the IC50 was above 10 µM.

Staying with this experiment, now noted: pH 7.8; 37 °C.
`O=C(O)c1csc(/N=C(\S)NCCc2ccccc2)n1` [2-{[(2-phenylethyl)carbamothioyl]amino}-1,3-thiazole-4-carboxylic acid]: the IC50 was above 10 µM. In turn, `Cc1csc(NC(=S)NCCc2ccccc2)n1` [3-(4-methyl-1,3-thiazol-2-yl)-1-(2-phenylethyl)thiourea] gave an IC50 of 0.1 µM. Consider `CCc1csc(NC(=S)NCCc2c(F)cccc2F)n1` [N-(2-(2,6-Difluorophenyl)ethyl)-N -(2-(4-ethylthiazolyl))thiourea], for which the IC50 was 0.0055 µM. Take `S=C(NCCc1ccccc1)Nc1ncccc1Br` [N-(2-Phenethyl)-N -(2-(3-bromopyridyl))thiourea]: the IC50 is above 10 µM. As to `S=C(NCCc1ccccc1)Nc1cc[nH]n1` [N-(2-Phenethyl)-N -(3-pyrazolyl)thiourea], the IC50 was above 10 µM.
